Data reported in patent EP4247399B1, “COMPOSITION COMPRISING NATURAL EXTRACTS AND USES THEREOF” (Esserre Pharma Srl, priority 2020, dated 2022).

Biological target: T1, HMG-CoA reductase (Homo sapiens, UniProt P04035)
T1 construct: purchased Sigma-Aldrich CS1090
T1 sequence (P04035 426-888 limits assumed): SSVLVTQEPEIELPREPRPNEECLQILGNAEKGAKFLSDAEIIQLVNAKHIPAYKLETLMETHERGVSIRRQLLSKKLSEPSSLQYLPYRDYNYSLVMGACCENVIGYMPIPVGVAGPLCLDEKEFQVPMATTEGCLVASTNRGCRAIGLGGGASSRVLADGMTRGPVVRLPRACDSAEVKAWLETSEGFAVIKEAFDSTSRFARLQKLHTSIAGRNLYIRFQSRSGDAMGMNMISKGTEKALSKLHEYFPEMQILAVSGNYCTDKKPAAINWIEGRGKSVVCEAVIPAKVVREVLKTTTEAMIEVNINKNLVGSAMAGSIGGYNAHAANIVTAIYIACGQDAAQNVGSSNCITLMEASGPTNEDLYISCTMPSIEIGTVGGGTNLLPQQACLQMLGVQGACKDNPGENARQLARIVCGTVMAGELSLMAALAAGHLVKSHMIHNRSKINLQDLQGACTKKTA
Assay: HMG-CoA reductase inhibition test (HMG-CoA Reductase Assay Kit, decrease in absorbance at 340 nm)
Assay type: biochemical
Details: positive control
Description: The purpose of the test is to evaluate the hypocholesterolemic activity of the test samples by determining the inhibition of the enzyme 3-hydroxy-3-methylglutaryl-CoA reductase (HMG-CoA reductase).
The test for the HMG-CoA reductase enzyme inhibitory capacity was performed using the special kit (HMG-CoA Reductase Assay Kit, Catalogue Number CS1090, Sigma-Aldrich) and related experimental protocol.
The experiments were carried out in triplicate.
5 mL of buffer were added to 50 mg of the test sample and the solution obtained was then suitably filtered and used for the test.
A 100 µM Pravastatin solution (0.042 mg/mL, Sigma Aldrich) was used as a positive control.
The samples thus prepared were stirred for 10 seconds. Absorbance was then measured at 340 nm for 10 minutes while maintaining the samples at 37°C.
The ability to inhibit enzyme activity was then expressed as percent inhibition and calculated according to the following Equation (1): %Hinibition = ((ΔAControl −ΔAsample)/(ΔAControl)) × 100% [formula] where the value of ΔA is given by the difference between the absorbance recorded at the start time and that recorded after 10 minutes for the control and for the sample respectively. […]

**Q.** For `CC[C@H](C)C(=O)O[C@H]1C[C@H](O)C=C2C=C[C@H](C)[C@H](CC[C@@H](O)C[C@@H](O)CC(=O)O)[C@H]21` [Pravastatin], which inhibition at 10 µg/mL (Pravastatin 0.01 mg/mL (10 µg/mL)) is on record?
**A.** 99.8%

**Q.** What about the inhibition at 100 µM (Pravastatin 0.042 mg/ml (100 µM)) of the same molecule?
**A.** 99.6 ± 1.1%
